Experiments:
[1] = Storage stability at 55° C. of dried lot 14 solid with added water or ethanol (Example 3, Table 3); type: physicochemical; settings: 55° C. for a short period such as 24 hours
Source text: Three values are given in the tables for each azadirachtin level: The amount (in grams) of azadirachtin A is given before the slash. The amount of azadirachtin B (in grams) is given after the slash. The total azadirachtin amount is given in parentheses. Ka, Kb, and Kt refer to the first order decomposition rate constants (with units of 1/day) for azadirachtin A, azadirachtin B, and total azadirachtin, respectively.
Dry solid azadirachtin was obtained by drying a solid azadirachtin sample from Lot 14 (014) in an oven at 55° C. for 24 hours in an unsealed vessel until the volatile content of the solid was less than 0.5%. The dried sample was then split into 6 subsamples. One dry subsample (014D) was used without further treatment. A second subsample (014W1) received 1% by weight of H2 O. A third subsample (014W4) received 4% by weight H2 O. Subsamples 4, 5 and 6 received 1, 3, and 5% by weight of ethanol, respectively and were designated 014E1, 014E3, and 014E5. The subsamples were placed in multiple tightly sealed vials at 55° C. Individual vials were removed periodically to assay for azadirachtin.

[2] = test system: various insect, mite, nematode, etc. orders; settings: cited from earlier work

Compound: C/C=C(\C)C(=O)O[C@H]1C[C@@H](OC(C)=O)[C@@]2(C(=O)OC)CO[C@H]3[C@@H](O)[C@@](C)([C@]45O[C@@]4(C)[C@H]4C[C@@H]5O[C@@H]5OC=C[C@@]54O)[C@H]4[C@]1(CO[C@]4(O)C(=O)OC)[C@@H]32 [azadirachtin]
- effect of heating upon azadirachtin stability [1]: little or no effect upon azadirachtin stability
- biological activity (in words) [2]: feeding inhibition and growth disruption
